Experimental findings from paper PMC10317875, “PET imaging of PARP expression using ^68Ga-labelled inhibitors” (European Journal of Nuclear Medicine and Molecular Imaging, 2023) are described below.

Data set [1] deals with T1, PARP-1 protein (human, Recombinant (His Tag)) (Homo sapiens, UniProt P09874).
T1 construct: His tag; purchased Sino Biological 11,040-H08B
The data set is described as follows: Surface plasmon resonance (SPR) binding assay. The conditions noted are these: SPR imaging. How it is done:
Furthermore, the compound Olaparib was used as a reference for affinity. The surface plasmon resonance binding assays were conducted according to the previous protocol.
For orientation: Surface plasmon resonance follows binding to a sensor surface in real time, without labels.

Data set [2] has as its system PARP-1 in SK-OV-3 cells. Put plainly: In vitro cell localization, FL-Olaparib confocal fluorescence with competition. As to conditions: FL-Olaparib 250 nM, presaturation with 1000-fold molar excess of competitor.
Method: SK-OV-3 cells were plated on a confocal petri dish (diameter = 60 mm) at 500 × 10^3 cells/well density. […] The confocal dish was protected from light by wrapping it in tin foil. Three PBS washes (10 min each) were performed on each cell type. Paraformaldehyde was added for cell fixation, and DAPI was added for nuclear staining. The cells were rinsed twice with medium and once with PBS (5 min per wash) and observed using a confocal microscope (LEICA TCS SP5 II).
After 1 h of incubation, to determine the uptake by SK-OV-3 cells, assays were carried out and repeated as stated above.
Data set [3] is described as follows: Partition coefficient log P (octanol/ultrapure water). The format is physicochemical. As to conditions: ultrapure water/octanol = 1/1. How it is done: Log P: Generally, approximately 74–185 kBq of the ^68Ga-labelled radiotracer was combined with a solvent mixture (2 mL, ultrapure water/octanol = 1/1). After 5 min of agitation in a vortex mixer, the aqueous and nonaqueous phases were separated by centrifugation at 15000 g. The radioactivity of each sampling layer (100 μL) was measured using a γ-counter. The trial was conducted five times.

Data set [4] is described as follows: Partition coefficient log D7.4 (octanol/PBS). The format is physicochemical. As to conditions: PBS (pH = 7.4)/octanol = 1/1. How it is done:
Log D7.4: Similarly, approximately 74–185 kBq of the ^68Ga-labelled radiotracer was combined with a solvent mixture (2 mL, PBS (pH = 7.4)/octanol = 1/1). The partition coefficient experiment was repeated, as mentioned previously.

Data set [5] concerns SK-OV-3 and A549 cells. Put plainly: Cell uptake of radiotracers in SK-OV-3 and A549 cells. The class given is cell-based. As to conditions: 2 h incubation at 37 °C. On the procedure:
SK-OV-3 and A549 cells were seeded in 6-well plates (500 × 10^3/well) for 24 h. Then, the cells were incubated separately with the three ^68Ga-labelled radiotracers (740 kBq/1 mL in each well) at 37 °C. To eliminate unbound ^68Ga-labelled radiotracers, the cells were rinsed three times with PBS (0.5 mL) 2 h after incubation. Cell suspensions were produced after adding pancreatin (0.5–0.8 mL). Finally, a γ-counter was used to measure the radioactivity. The radioactivity data are presented as CPM (counts per minute) with time-decay correction. Three replicate experiments were conducted.

Data set [6] in a line: Pharmacokinetics (blood clearance) in normal mice. The format is in vivo. As to conditions: tail vein injection, blood radioactivity. On the procedure: The pharmacokinetic parameters of the three ^68Ga-labelled radiotracers were evaluated in normal mice. The three ^68Ga-labelled radiotracers were injected into mice via the tail veins at a dose of 1.48–2.96 MBq/mouse in approximately 200 μL. Blood samples were obtained via the tail vein using tared capillary tubes at 1, 3, 5, 10, 15, 30, 60, 120, and 180 min after radiotracer injection. The blood volume drawn was approximately 0.5–0.8 dispense capillary volumes at each time point. Dispense capillary tube was from Shanghai Great Wall Scientific Instruments Store (size: 0.5 × 100; diameter: 0.5 mm; length: 100 mm). The radioactivity was determined with a γ-counter and decay-corrected to the injection time. All samples were weighed. The radioactive CPM (counts per minute) by dividing by the mass of blood in the capillary are presented as %ID/g. Finally, the pharmacokinetic parameters were analysed by GraphPad Prism 9.0.

The nature of data set [7]: Plasma protein binding (ultrafiltration). The class given is in vitro ADME. As to conditions: mouse plasma. On the procedure:
To evaluate the plasma protein binding of the ^68Ga-labelled radiotracers, mouse blood from the heart was centrifuged at 4000 g for 5 min. The upper layer of blood was transferred to an EP tube and stored overnight in a refrigerator at 4 °C.
One hundred microliters of the ^68Ga-labelled radiotracer solution (0.74–1.48 MBq) was incubated with 100 μL of the above plasma. After 0.5, 1, and 2 h of incubation, the mixture was centrifuged at 15000 g for 10 min in a 30 K ultrafiltration tube. The radioactivity of the membrane and eluate was detected with a γ-counter. The radioactivity from the membrane, representing the tracer bound to plasma proteins, was estimated as a proportion of the total radioactivity of the sample. The experiment was repeated in triplicate.

The test system of data set [8] is SK-OV-3 models. The data set is described as follows: MicroPET/CT imaging of SK-OV-3 models. The format is in vivo, BALB/c nude mice. On the procedure:
(§1) Female BALB/c nude mice (6–8 weeks old) were utilized in all tumor-bearing mouse experiments. Twelve BALB/c nude mice were subcutaneously injected with SK-OV-3 cells (1 × 10^6) into the right armpit. The mice were used for investigation after the tumor diameter reached approximately 0.5–1.1 cm.
Six SK-OV-3 models were separated into two groups (^68Ga-labelled radiotracers and blocked groups). The ^68Ga-labelled radiotracers (2.96–5.55 MBq in 200 μL of saline) were administered via tail vein injection. Approximately 5 min before PET acquisition, the mice were anaesthetized by inhalation of a mixture of isoflurane and positioned in the scanner. The PET data for each mouse were acquired at 0.5, 1, and 2 h after injection. In the blocking studies, ^68 Ga-DOTA-Olaparib was injected with a 500-fold excess of Olaparib (562.68 μg) in 200 μL of a solution consisting of 75% saline and 25% DMSO (dimethyl sulfoxide). PET acquisition was performed at 1 h postinjection. The target tissue’s radioactivity content was measured, and the tissue-associated activity was expressed as %ID/g.

Data set [9] relates to SK-OV-3 models. Put plainly: Ex vivo biodistribution in SK-OV-3 models. Set-up: species or system BALB/c nude mice. On the procedure:
as §1
(§2) Biodistribution experiments were conducted with SK-OV-3 models (10–12 weeks old, n = 3). ^68Ga-DOTA-Olaparib (1.85–5.55 MBq of ^68Ga-DOTA-Olaparib in 200 μL of saline) was administered via the lateral tail vein. After allowing the medication to circulate for varying amounts of time (0.5, 1, and 2 h), three mice were sacrificed. The tissue radioactivity (tumor, blood, muscle, bone, liver, spleen, kidney, heart, lung, bladder, brain, small intestine, and stomach) was measured using a γ-counter. The organs were weighed, and the γ-counter activity readings were decay-corrected to the injection time. Finally, the associated tissue activity was calculated by GraphPad Prism 9.0, and the data are expressed as %ID/g.
To verify specific tumor accumulation, ^68Ga-DOTA-Olaparib was administered with a 500-fold excess of Olaparib (530.94 μg) in 200 μL of a solution containing 75% saline and 25% DMSO via the lateral tail vein. After 1 h, mice (n = 3) were sacrificed to collect the tissues of interest. The associated tissue activity was measured as described above.

The test system of data set [10] is A549 models. The data set is described as follows: Ex vivo biodistribution in A549 models. Set-up: species or system mice. As to conditions: 1 h. How it is done:
as §2, with “To further compare and validate the specific uptake of ^68Ga-DOTA-Olaparib in different tumor models, biodistribution” for “Biodistribution”, “A549” for “SK-OV-3”, “(1.22–5.59” for “(1.85–5.55”

Data set [11] in a line: Ex vivo biodistribution in normal mice. As to conditions: 5-180 min after injection. How it is done:
Normal mice (6–8 weeks old, n = 5) were utilized in the biodistribution experiments. ^68Ga-DOTA-Olaparib (0.74–2.96 MBq of 200 μL of saline) was administered via the lateral tail vein. The medication was allowed to circulate for 5, 15, 30, 60, 120, and 180 min before the mice were sacrificed. The radioactivity in the target tissues (blood, muscle, bone, liver, spleen, kidney, heart, lung, bladder, brain, small intestine, and stomach) was measured using a γ-counter. The organs were weighed, and the γ-counter activity readings were decay-corrected to the injection time. The corresponding tissue activity was then assessed using GraphPad Prism 9.0, and the data are presented as %ID/g using the following formula: [(activity in the target organ/target organ quality)/injected dose] * 100%.

The structures appear in SMILES notation.

`O=C(O)CN1CCN(CC(=O)O)CCN(CC(=O)N2CCN(C(=O)c3cc(Cc4n[nH]c(=O)c5ccccc45)ccc3F)CC2)CCN(CC(=O)O)CC1` [DOTA-Olaparib]: in [1], the Kd (as a rule, the concentration at which binding is half-saturated) stood at 14.5 nM. Besides, in [2], the “effect on FL-Olaparib fluorescence signals” value is “substantial reduction in fluorescence signals”.

Turning to `O=C([O-])CN1CCN(CC(=O)O)CCN(CC(=O)[O-])CCN(CC(=O)NCCCC(=O)N2CCN(C(=O)c3cc(Cc4n[nH]c(=O)c5ccccc45)ccc3F)CC2)CC1.[68Ga+3]` [68Ga-DOTA-GABA-Olaparib], the “log Poctanol/water” value in data set [3] is given as -2.16 ± 0.12. Also, in data set [4], the “log Doctanol/PBS” value is recorded as -2.49 ± 0.15. In addition, in data set [5], the SK-OV-3/A549 uptake ratio was found to be 2.43 ± 0.45. In addition, the “clear-phase half-life (t1/2β)” value in data set [6] came to 47.69 min. The “distribution-phase half-life (t1/2α)” value in data set [6] was 0.31 min. Also, the plasma protein binding in [7] (0.5 h) is 59.62 ± 2.40%; in data set [7] (1 h) it was 83.84 ± 1.42%; in [7] (2 h), 58.13 ± 6.63%. For the same molecule, the “tumor uptake (PET/CT)” value in data set [8] (0.5 h after injection) is reported as 0.96 ± 0.14 %ID/g; in data set [8] (1 h after injection) it was 0.56 ± 0.12 %ID/g; in data set [8] (2 h after injection) it was 0.98 ± 0.53 %ID/g.

Consider `O=C([O-])CN1CCN(CC(=O)O)CCN(CC(=O)[O-])CCN(CC(=O)NCC(=O)NCC(=O)NCC(=O)N2CCN(C(=O)c3cc(Cc4n[nH]c(=O)c5ccccc45)ccc3F)CC2)CC1.[68Ga+3]` [68Ga-DOTA-(Gly)3-Olaparib], for which, in data set [3], the “log Poctanol/water” value is -1.62 ± 0.075. For the same molecule, the “log Doctanol/PBS” value in data set [4] is reported as -1.75 ± 0.11. For the same molecule, the SK-OV-3/A549 uptake ratio in data set [5] is on record as 1.63 ± 0.13. The “clear-phase half-life (t1/2β)” value in [6] was determined as 23.19 min. Also, in data set [6], the “distribution-phase half-life (t1/2α)” value is listed as 0.40 min. Also, the plasma protein binding in [7] (0.5 h) is 39.32 ± 1.89%; in [7] (1 h) it was 43.08 ± 7.20%; in data set [7] (2 h), 43.56 ± 5.24%. Also, the “tumor uptake (PET/CT)” value was determined as 0.96 ± 0.13 %ID/g in data set [8] (0.5 h after injection), 0.57 ± 0.068 %ID/g in data set [8] (1 h after injection) and 0.91 ± 0.11 %ID/g in data set [8] (2 h after injection).

For `O=C([O-])CN1CCN(CC(=O)O)CCN(CC(=O)[O-])CCN(CC(=O)N2CCN(C(=O)c3cc(Cc4n[nH]c(=O)c5ccccc45)ccc3F)CC2)CC1.[68Ga+3]` [68Ga-DOTA-Olaparib], the “log Poctanol/water” value in data set [3] is -2.33 ± 0.028. The “log Doctanol/PBS” value in data set [4] is on record as -2.56 ± 0.026. In addition, the SK-OV-3/A549 uptake ratio in data set [5] is recorded as 1.47 ± 0.019. Further, the “clear-phase half-life (t1/2β)” value in data set [6] is 22.82 min. In addition, the “distribution-phase half-life (t1/2α)” value in [6] came out at 1.97 min. Moreover, the plasma protein binding in data set [7] (0.5 h) is 20.59 ± 1.23%; in data set [7] (1 h), 32.85 ± 4.11%; in [7] (2 h), 24.04 ± 0.80%. The “T/M (tumor-to-muscle) ratio (PET/CT)” value in data set [8] (0.5 h) was “approximately 3.54 ± 0.74”; in [8] (1 h, unblocked) it was about 4.07 ± 0.59; in data set [8] (2 h) it was about 7.31 ± 0.51. Moreover, the “T/M (tumor-to-muscle) ratio (PET/CT), blocked” value in data set [8] (1 h, blocked with a 500-fold excess of Olaparib) amounted to 1.79 ± 0.26. In addition, the “tumor uptake (PET/CT)” value is reported as about 2.37 ± 0.37 %ID/g in data set [8] (1 h after injection) and about 2.27 ± 0.32 %ID/g in data set [8] (2 h after injection). For the same molecule, in data set [9] (1 h after administration), the tumor/intestine ratio was 2.05 ± 0.072. For the same molecule, the tumor/stomach ratio in data set [9] (1 h after administration) was 2.97 ± 0.73. For the same molecule, the “T/M ratio (ex vivo biodistribution)” value in data set [9] (2 h) is given as 12.64 ± 1.32. Besides, in data set [9] (2 h), the “tumor-to-bone ratio (ex vivo biodistribution)” value is 3.85 ± 0.68. Besides, the “tumor-to-brain ratio (ex vivo biodistribution)” value in [9] (2 h) is on record as 15.63 ± 1.58. Also, the bladder accumulation is recorded as 5.80 ± 1.47 %ID/g in data set [9] (SK-OV-3 models, 0.5 h); 2.57 ± 0.72 %ID/g in [9] (SK-OV-3 models, 1 h); 0.064 ± 0.025 %ID/g in data set [9] (SK-OV-3 models, 2 h). Further, the kidneys accumulation in data set [9] (SK-OV-3 models, 0.5 h) is 3.11 ± 0.29 %ID/g; in data set [9] (SK-OV-3 models, 1 h), 4.24 ± 0.22 %ID/g; in data set [9] (SK-OV-3 models, 2 h), 2.51 ± 0.33 %ID/g. Besides, in data set [9] (SK-OV-3 models, 1 h, 500-fold excess of Olaparib), the “tumor radioactivity (ex vivo biodistribution), blocked” value is listed as 0.25 ± 0.027 %ID/g. Besides, the “tumor radioactivity (ex vivo biodistribution)” value in data set [9] (SK-OV-3 models, 1 h postinjection) was 1.26 ± 0.17 %ID/g. Besides, the “tumor uptake (ex vivo biodistribution)” value in data set [10] worked out at 0.43 ± 0.10 %ID/g. For the same molecule, the “order of clearance from the body” value in data set [11] is listed as “kidney-bladder-urine”.
